From patent publication US6521446B2, “Biosensor” (Duke University, priority 1997, dated 2003)

Columns and labels:
[1] = Glucose binding, titration followed by fluorescence change of the conjugated fluorophore
Protocol: (§1) Measurement of Glucose and Galactose Binding. Sugar binding was determined by measuring changes in fluorescence of the conjugated fluorophores on a SLM-Aminco-Bowman series-2 fluorimeter at 25±1° C. Glucose or galactose (Sigma) was titrated into a 50 nM conjugated protein solution in 0.1 M NaCl, 50 mM phosphate (pH 7.0), which was continuously mixed with a magnetic stirrer. For titrations, the excitation and emission slit widths were set to 4 and 16 nm, respectively (IANBD:λex=469 nm, λcm=540 nm; acrylodan: λex=392 nm, λem=520 nm). Under these conditions the instrument noise was <1% of the fluorescence signal observed in saturating solutions of glucose. Experimentally observed binding curves were fit to a binding isotherm:
(§2) where ΔF is the change in fluorescence, ΔFmax the fluorescence change at saturating concentrations of ligand, Kd the binding constant, and S the concentration of ligand.

[2] = Galactose binding, titration followed by fluorescence change of the conjugated fluorophore
Protocol: as §1, §2

[3] = Sugar binding Kd of mutant proteins: L-Arabinose; details: Table 2, binding-site mutants
Protocol: as §1, with “Glucose or galactose (Sigma) was titrated into a 50 nM conjugated protein solution in 0.1 M NaCl, 50 mM phosphate (pH 7.0), which was continuously mixed with a magnetic stirrer.” left out
as §2
(§3) (Primary binding surface in E. coli GBP: Asn14, Asn91, His152, Asp154, Arg158, Asn211, Asp236, Asn256; secondary binding surface in E coli GBP: Tyr10, Phe16, Met17, Asn66, Ser112, Ser115, Trp183, Asn210, Met214, Gln261, Tyr295). In order to change the binding constant for glucose, residues in both surfaces have been systematically mutated, either singly or in pairs. The Asp154Ala, Trp183Ala (D154A+W183A) double mutant has a binding constant of 7.2 mM. The dynamic range is thus matched for operating in physiologically relevant glucose concentration ranges.

[4] = Sugar binding Kd of mutant proteins: D-Mannose; details: Table 2, binding-site mutants
Protocol: as §1, with “Glucose or galactose (Sigma) was titrated into a 50 nM conjugated protein solution in 0.1 M NaCl, 50 mM phosphate (pH 7.0), which was continuously mixed with a magnetic stirrer.” left out
as §2, §3

[5] = Sugar binding Kd of mutant proteins: D-Fucose; details: Table 2, binding-site mutants
Protocol: as §1, with “Glucose or galactose (Sigma) was titrated into a 50 nM conjugated protein solution in 0.1 M NaCl, 50 mM phosphate (pH 7.0), which was continuously mixed with a magnetic stirrer.” left out
as §2, §3

[6] = Sugar binding Kd of mutant proteins: D-Fructose; details: Table 2, binding-site mutants
Protocol: as §1, with “Glucose or galactose (Sigma) was titrated into a 50 nM conjugated protein solution in 0.1 M NaCl, 50 mM phosphate (pH 7.0), which was continuously mixed with a magnetic stirrer.” left out
as §2, §3

[7] = Fluorescence of glucose-saturated GBP conjugate relative to apoprotein; type: binding
Protocol: as §1, with “isotherm: […]” for “isotherm:”

[8] = Sugar binding Kd of mutant proteins: Maltose; details: Table 2, binding-site mutants
Protocol: as §1, with “Glucose or galactose (Sigma) was titrated into a 50 nM conjugated protein solution in 0.1 M NaCl, 50 mM phosphate (pH 7.0), which was continuously mixed with a magnetic stirrer.” left out
as §2, §3

[9] = Sugar binding Kd of mutant proteins: D-Xylose; details: Table 2, binding-site mutants
Protocol: as §1, with “Glucose or galactose (Sigma) was titrated into a 50 nM conjugated protein solution in 0.1 M NaCl, 50 mM phosphate (pH 7.0), which was continuously mixed with a magnetic stirrer.” left out
as §2, §3

[10] = Sugar binding Kd of mutant proteins: Lactose; details: Table 2, binding-site mutants
Protocol: as §1, with “Glucose or galactose (Sigma) was titrated into a 50 nM conjugated protein solution in 0.1 M NaCl, 50 mM phosphate (pH 7.0), which was continuously mixed with a magnetic stirrer.” left out
as §2, §3

[11] = Table 2, binding-site mutants, read-out: Kd, D-Glucose
[12] = Table 2, binding-site mutants, read-out: Kd, D-Galactose
[13] = IANBD conjugate, read-out: Kd(Glc)
[14] = acrylodan conjugate, read-out: Kd(Glc)
[15] = IANBD conjugate, read-out: Kd(Gal)
[16] = acrylodan conjugate, read-out: Kd(Gal)
[17] = IANBD conjugate, relative to wild-type
[18] = mutants in the allosterically signaling construct 255C, read-out: binding constant for glucose

Row | Substance | Kd [1, 11] [µM] | Kd [2, 12] [µM] | Kd [3] [µM] | Kd [4] [µM] | R: ratio of fluorescence of fully saturated GBP (10 mM glucose) to apoprotein ([7]; IANBD conjugate) | R: ratio of fluorescence of fully saturated GBP (10 mM glucose) to apoprotein ([7]; acrylodan conjugate) | further results
1 | D14A: E. coli GBP binding-site mutant at position 14 | 290 | 390 | 7250 | 26000 |  |  | 
2 | D154A W183A: E. coli GBP double mutant in a 255C background | 7200 |  |  |  |  |  | Kd ([1]; 255C background, read-out: binding constant): 7200 µM; Kd ([1]; glucose, read-out: binding constant): 7200 µM
3 | D154A: E. coli GBP binding-site mutant | 11.5 | 41 | 2200 | 1550 |  |  | Kd [5]: 140 µM; Kd [6]: 24000 µM
4 | D257C: E. coli GBP single cysteine mutant in the hinge region, fluorophore conjugated |  |  |  |  | 1.6 | 0.8 | Kd [1, 13]: 0.8 µM; Kd [1, 14]: 0.5 µM; Kd [2, 15]: 1.5 µM; Kd [2, 16]: 0.5 µM
5 | F16Y: E. coli GBP binding-site mutant | 500 | 1160 |  |  |  |  | Kd [5]: 6000 µM
6 | H152C: E. coli GBP single cysteine mutant in the binding pocket, nonallosteric reporter site, conjugated to IANBD or acrylodan |  |  |  |  | 4.0 | 1.0 | increase in the binding constant for glucose [1, 17]: ~100 fold; Kd [1, 13]: 20 µM; increase in the binding constant for galactose [2, 17]: ~500 fold; Kd [2, 15]: 160 µM; increase in fluorescence ([7]; IANBD conjugate): 4 fold
7 | L255C: E. coli GBP single cysteine mutant in the hinge region of the allosteric flap; allosterically signaling construct 255C |  |  |  |  | 0.8 | 0.5 | Kd [1, 13]: 0.32 µM; Kd [1, 14]: 0.43 µM; Kd [1, 18]: 0.2 µM; Kd [2, 15]: 0.49 µM; Kd [2, 16]: 0.62 µM
8 | N15C: E. coli GBP single cysteine mutant in the binding pocket, nonallosteric reporter site, conjugated to IANBD or acrylodan |  |  |  |  | 0.8 | 0.7 | Kd [1, 13]: 0.13 µM; effect on the sugar binding constants ([1]; acrylodan and IANBD conjugates at the 15 position): do not greatly perturb the sugar binding constants; Kd [1, 14]: 0.17 µM; Kd [2, 15]: 0.1 µM; Kd [2, 16]: 0.15 µM
9 | N91A: E. coli GBP binding-site mutant | 150 | 1080 |  | 16000 |  |  | Kd [5]: 1230 µM
10 | P294C: E. coli GBP single cysteine mutant in the hinge region, fluorophore conjugated |  |  |  |  | 1.0 | 0.9 | Kd [1, 14]: 1 µM; Kd [2, 16]: 1 µM
11 | S112A S115A: E. coli GBP binding-site double mutant | 9 | 33 | 1100 | 1400 |  |  | Kd [8]: 3300 µM
12 | S112A: E. coli GBP binding-site mutant | 7.2 | 24.5 | 870 | 670 |  |  | Kd [9]: 4200 µM; Kd [6]: 15000 µM
13 | V296C: E. coli GBP single cysteine mutant in the hinge region, fluorophore conjugated |  |  |  |  | 0.7 | 1.0 | Kd [1, 13]: 0.1 µM; Kd [2, 15]: 0.3 µM
14 | W183A: GBP single mutant constructed in the allosterically signaling construct 255C |  |  |  |  |  |  | Kd [1, 18]: 20 µM
15 | W183AY10A: GBP double mutant constructed in the allosterically signaling construct 255C |  |  |  |  |  |  | Kd [1, 18]: 650 µM
16 | Wild-type: wild type E. coli Glucose/Galactose Binding Protein (GBP) [reference compound] |  | 2.4 | 90 | 105 |  |  | Kd ([1]; wild type GBP, read-out: Kd (glucose)): 0.8 µM; Kd [5]: 340 µM; Kd [8]: 400 µM; Kd [10]: 1300 µM; Kd [9]: 1400 µM; Kd [6]: 4700 µM
17 | Y10A D154A: E. coli GBP binding-site double mutant | 1050 | 4400 |  |  |  |  | 
18 | Y10A: E. coli GBP binding-site mutant, constructed in the 255C construct | 54 | 180 | 2700 | 7100 |  |  | Kd [1, 18]: 50 µM; Kd [6]: 22000 µM
19 | acrylodan conjugate at position 255: acrylodan conjugate of the L255C GBP mutant, best allosteric signal transducer in the hinge region |  |  |  |  |  |  | decrease in fluorescence upon ligand binding ([7]; acrylodan conjugate): 2 fold
